From patent publication US8735375B2, “Therapeutic compositions” (Leo Laboratories Limited, priority 2005, dated 2014)

Assay: Stability of I3A isoforms in the assay solvent systems over 72 h
Assay type: physicochemical
Description: The stability of […] isoforms 'a', 'b' and 'c' in the three sample systems over 72 h (equivalent to the maximum possible length of time the samples might be held in the autosampler during a long HPLC analytical run) was confirmed as follows. Standards of the three isoforms of […] The standards were then each divided into three equal volumes and placed at 2-8° C., room temperature and 40° C. for 72 h and were then again analysed by HPLC.

[1] = Acetonitrile/Citrate buffer (pH 3), 72 h 2-8° C.
[2] = Acetonitrile/Citrate buffer (pH 3), 72 h 40° C.
[3] = Acetonitrile/Citrate buffer (pH 3), 72 h RTP
[4] = Acetonitrile/Citrate buffer (pH 3), Time 0 h
[5] = Acetonitrile/Sodium acetate buffer (pH 4.5), 72 h 2-8° C.
[6] = Acetonitrile/Sodium acetate buffer (pH 4.5), 72 h 40° C.
[7] = Acetonitrile/Sodium acetate buffer (pH 4.5), 72 h RTP
[8] = Acetonitrile/Sodium acetate buffer (pH 4.5), Time 0 h

Row | SMILES | % ‘a’ (Acetonitrile, 72 h 2-8° C.) [%] | % ‘b’ (Acetonitrile, 72 h 2-8° C.) [%] | % ‘c’ (Acetonitrile, 72 h 2-8° C.) [%] | % ‘a’ (Acetonitrile, 72 h 40° C.) [%] | % ‘b’ (Acetonitrile, 72 h 40° C.) [%] | % ‘c’ (Acetonitrile, 72 h 40° C.) [%] | % ‘a’ (Acetonitrile, 72 h RTP) [%] | % ‘b’ (Acetonitrile, 72 h RTP) [%] | % ‘c’ (Acetonitrile, 72 h RTP) [%] | % ‘a’ (Acetonitrile, Time 0 h) [%] | % ‘b’ (Acetonitrile, Time 0 h) [%] | % ‘c’ (Acetonitrile, Time 0 h) [%] | % ‘a’ [1] [%] | % ‘b’ [1] [%] | % ‘c’ [1] [%] | % ‘a’ [2] [%] | % ‘b’ [2] [%] | % ‘c’ [2] [%] | % ‘a’ [3] [%] | % ‘b’ [3] [%] | also measured
1 | CC=C(C)C(=O)OC1C(CO)=CC2C(=O)C3(C=C(C)C(O)C13O)C(C)CC1C2C1(C)C (stereo not drawn) [Isoform ‘a’, ingenol-5-angelate] | 90.63 | 5.71 | 2.55 | 16.36 | 47.01 | 35.74 | 86.58 | 7.8 | 3.65 | 96.82 | 2.24 | 0.29 | 98.31 | 1.46 | 0 | 98.13 | 1.79 | 0 | 98.84 | 1.08 | % ‘c’ [3]: 0%; % ‘a’ [4]: 97.91%; % ‘b’ [4]: 1.63%; % ‘c’ [4]: 0%; % ‘a’ [5]: 96.47%; % ‘b’ [5]: 2.83%; % ‘c’ [5]: 0%; % ‘a’ [6]: 82.51%; % ‘b’ [6]: 16.62%; % ‘c’ [6]: 0%; % ‘a’ [7]: 95.25%; % ‘b’ [7]: 4.22%; % ‘c’ [7]: 0%; % ‘a’ [8]: 96.65%; % ‘b’ [8]: 2.16%; % ‘c’ [8]: 0.23%
2 | CC=C(C)C(=O)OCC1=CC2C(=O)C3(C=C(C)C(O)C3(O)C1O)C(C)CC1C2C1(C)C (stereo not drawn) [Isoform ‘c’, ingenol-20-angelate] | 1.62 | 0 | 96.69 | 0.6 | 0 | 97.09 | 1.55 | 0.27 | 97.19 | 1.28 | 0.41 | 97.30 | 0.87 | 0.16 | 98.84 | 0 | 0 | 98.7 | 0.53 | 0 | % ‘c’ [3]: 99.24%; % ‘a’ [4]: 1.12%; % ‘b’ [4]: 0.20%; % ‘c’ [4]: 98.41%; % ‘a’ [5]: 1.41%; % ‘b’ [5]: 0.27%; % ‘c’ [5]: 97.17%; % ‘a’ [6]: 0%; % ‘b’ [6]: 0%; % ‘c’ [6]: 97.75%; % ‘a’ [7]: 0.83%; % ‘b’ [7]: 0%; % ‘c’ [7]: 97.97%; % ‘a’ [8]: 1.34%; % ‘b’ [8]: 0.45%; % ‘c’ [8]: 97.02%
